ChEMBL document CHEMBL1201862, “PubChem BioAssay data set” (2004)
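Growth conditions: 96-well plates. Treatment: test compound, 48 hours, 5 concentrations. Analysis: linear interpolation between bracketing concentrations; unreached endpoints set to highest concentration. Abbreviation: GI50, concentration required for 50% inhibition of growth.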 Active and inactive are the calls of the source. Rule as the data show it: active = GI50 up to about 1.1 µM and inactive = higher.

Experiments:
Test in all cases: growth of human tumour cells (NCI), 48 h
[1] = tested on: ACHN
[2] = tested on: RPMI-8226
[3] = tested on: UO-31
[4] = tested on: MOLT-4
[5] = tested on: HCT-116
[6] = tested on: MDA-MB-231
[7] = tested on: SN12C
[8] = tested on: OVCAR-5
[9] = tested on: TK-10
[10] = tested on: SF-539
[11] = tested on: U-251
[12] = tested on: EKVX
[13] = tested on: IGROV-1
[14] = tested on: OVCAR-3
[15] = tested on: M14
[16] = tested on: UACC-62
[17] = tested on: HOP-92
[18] = tested on: HCT-15
[19] = tested on: MCF7
[20] = tested on: HL-60
[21] = tested on: 786-0
[22] = tested on: DU-145
[23] = tested on: MDA-MB-435
[24] = tested on: SK-OV-3
[25] = tested on: NCI-H460
[26] = tested on: SF-295
[27] = tested on: COLO 205
[28] = tested on: CCRF-CEM
[29] = tested on: MDA-N
[30] = tested on: SK-MEL-28
[31] = tested on: SF-268
[32] = tested on: SK-MEL-2
[33] = tested on: K562
[34] = tested on: PC-3
[35] = tested on: HOP-62
[36] = tested on: LOX IMVI
[37] = tested on: Malme-3M
[38] = tested on: T47D
[39] = tested on: A549
[40] = tested on: HT-29
[41] = tested on: Hs-578T
[42] = tested on: KM12
[43] = tested on: SK-MEL-5
[44] = tested on: UACC-257
[45] = tested on: OVCAR-8
[46] = tested on: NCI-H226
[47] = tested on: SW-620
[48] = tested on: OVCAR-4
[49] = tested on: NCI-H23
[50] = tested on: SR
[51] = tested on: HCC 2998
[52] = tested on: CAKI-1
[53] = tested on: NCI/ADR-RES
[54] = tested on: SNB-75
[55] = tested on: SNB-19
[56] = tested on: A498

**Q.** Which results are given for `CN(C)CCCOCCn1c2c(c3ccccc31)CCCC2`?
**A.** GI50 [1]: 15.2 µM (inactive); GI50 [2]: 15.9 µM (inactive); GI50 [3]: 17.1 µM (inactive); GI50 [4]: 13.7 µM (inactive); GI50 [5]: 15.3 µM (inactive); GI50 [6]: 13 µM (inactive); GI50 [7]: 16.9 µM (inactive); GI50 [8]: 16.9 µM (inactive); GI50 [9]: 18.4 µM (inactive); GI50 [10]: 18.7 µM (inactive); GI50 [11]: 17.9 µM (inactive); GI50 [12]: 21.9 µM (inactive); GI50 [13]: 15.8 µM (inactive); GI50 [14]: 18.2 µM (inactive); GI50 [15]: 15.7 µM (inactive); GI50 [16]: 16.7 µM (inactive); GI50 [17]: 13.2 µM (inactive); GI50 [18]: 15 µM; GI50 [19]: 16.4 µM (inactive); GI50 [20]: 5.19 µM (inactive); GI50 [21]: 15.2 µM (inactive); GI50 [22]: 27.9 µM (inactive); GI50 [23]: 17.7 µM (inactive); GI50 [24]: > 10 µM (inactive); GI50 [25]: 15 µM (inactive); GI50 [26]: 20 µM (inactive); GI50 [27]: 16.6 µM (inactive); GI50 [28]: 12.9 µM (inactive); GI50 [29]: 14.9 µM (inactive); GI50 [30]: 16.6 µM (inactive); GI50 [31]: 26.9 µM (inactive); GI50 [32]: 13.4 µM (inactive); GI50 [33]: 12.9 µM (inactive); GI50 [34]: 12.9 µM (inactive); GI50 [35]: 14.7 µM (inactive); GI50 [36]: 16.1 µM (inactive); GI50 [37]: 18 µM (inactive); GI50 [38]: 23.2 µM (inactive); GI50 [39]: 17 µM (inactive); GI50 [40]: 15 µM (inactive); GI50 [41]: 19.7 µM (inactive); GI50 [42]: 21.2 µM (inactive); GI50 [43]: 12.7 µM (inactive); GI50 [44]: 18.2 µM (inactive); GI50 [45]: 17.5 µM (inactive); GI50 [46]: 29.6 µM (inactive); GI50 [47]: 18.7 µM (inactive); GI50 [48]: 15.2 µM (inactive); GI50 [49]: 15.1 µM (inactive); GI50 [50]: 18.1 µM (inactive); GI50 [51]: 14.4 µM (inactive); GI50 [52]: 15.2 µM (inactive); GI50 [53]: 16.3 µM (inactive); GI50 [54]: 13.1 µM (inactive)

**Q.** `CC(=O)OCC(OC(C)=O)C(OC(C)=O)C(/C=N/N(C(C)=O)S(=O)(=O)c1ccc(/C=C2\NC(=O)NC2=O)cc1)OC(C)=O` (stereo not given) was tested. Which GI50 [1] did it give?
**A.** > 100 µM (inactive)

**Q.** And the GI50 [3]?
**A.** > 100 µM (inactive)

**Q.** What about the GI50 [4] of the same compound?
**A.** > 100 µM (inactive)

**Q.** And the GI50 [5]?
**A.** > 100 µM (inactive)

**Q.** What about the GI50 [6] of the same compound?
**A.** > 100 µM (inactive)

**Q.** And the GI50 [8]?
**A.** > 100 µM (inactive)

**Q.** What about the GI50 [9] of the same compound?
**A.** > 100 µM (inactive)

**Q.** And the GI50 [11]?
**A.** > 100 µM (inactive)

**Q.** And the GI50 [12]?
**A.** > 100 µM (inactive)

**Q.** What about the GI50 [13] of the same compound?
**A.** > 100 µM (inactive)

**Q.** And the GI50 [14]?
**A.** > 100 µM (inactive)

**Q.** What about the GI50 [15] of the same compound?
**A.** > 100 µM (inactive)

**Q.** And the GI50 [16]?
**A.** > 100 µM (inactive)

**Q.** What about the GI50 [55] of the same compound?
**A.** > 100 µM (inactive)

**Q.** And the GI50 [18]?
**A.** > 100 µM

**Q.** And the GI50 [21]?
**A.** > 100 µM (inactive)

**Q.** What about the GI50 [22] of the same compound?
**A.** > 100 µM (inactive)

**Q.** And the GI50 [23]?
**A.** > 100 µM (inactive)

**Q.** What about the GI50 [24] of the same compound?
**A.** > 100 µM (inactive)

**Q.** What about the GI50 [25] of the same compound?
**A.** > 100 µM (inactive)

**Q.** And the GI50 [27]?
**A.** > 100 µM (inactive)

**Q.** And the GI50 [28]?
**A.** 50.6 µM (inactive)

**Q.** And the GI50 [29]?
**A.** > 100 µM (inactive)

**Q.** What about the GI50 [31] of the same compound?
**A.** > 100 µM (inactive)

**Q.** What about the GI50 [34] of the same compound?
**A.** > 100 µM (inactive)

**Q.** What about the GI50 [38] of the same compound?
**A.** > 100 µM (inactive)

**Q.** What about the GI50 [39] of the same compound?
**A.** > 100 µM (inactive)

**Q.** What about the GI50 [56] of the same compound?
**A.** > 100 µM (inactive)

**Q.** And the GI50 [41]?
**A.** > 100 µM (inactive)

**Q.** And the GI50 [43]?
**A.** > 100 µM (inactive)

**Q.** And the GI50 [44]?
**A.** > 100 µM (inactive)

**Q.** And the GI50 [47]?
**A.** > 100 µM (inactive)

**Q.** What about the GI50 [48] of the same compound?
**A.** > 100 µM (inactive)

**Q.** And the GI50 [49]?
**A.** > 100 µM (inactive)

**Q.** What about the GI50 [50] of the same compound?
**A.** > 100 µM (inactive)

**Q.** And the GI50 [53]?
**A.** > 100 µM (inactive)
